Test results: US8263776B2, “Inhibitors of c-Met protein kinase” (Vertex Pharmaceuticals Incorporated, priority 2009, dated 2012)

Experiments:
[1] = molecular target: T1, PDE3A (Homo sapiens, UniProt Q14432); assay: Inhibition of PDE3 (mobility-shift assay, LabChip 3000); assay type: biochemical; conditions: for IC50: PDE3A, iFL-cAMP substrate, 40 minute incubation; for activity against PDE3 compared with the respective enantiomer: statement in words in the summary
T1 construct: purchased BPS Bioscience 60030
From the text: Phosphodiesterase-3 (PDE3) is one of a family of phosphodiesterases responsible for the regulation of cyclic nucleotide second messengers. PDE3 enzymes are involved in regulation of cardiac and vascular smooth muscle contractility. Agents that inhibit PDE3 were originally investigated for the treatment of heart failure but have unwanted arrhythmic side effects. See Dart R. C., Medical Toxicology, Edition 3, page 708; Lippincott 2004.
Compounds of formula I were screened for their ability to inhibit PDE3 in a mobility-shift assay that quantitates the conversion of a flourescent analog of cyclic AMP to a flourescent analog of AMP using a LabChip 3000 (Caliper Life Sciences, Hopkinton, Mass.). Accordingly, a 0.6 μL aliquot of the test compound dissolved in DMSO was placed in a well of a 384-well plate, followed by the addition of a 15 μL aliquot of 200 ng/mL PDE3A (BPS Bioscience, San Diego, Calif., Catalog No. 60030) in 50 mM HEPES buffer at pH 7.5, containing 5 mM MgCl2 and 0.001% Brij-35 (Buffer A). The enzyme and compound were incubated at room temperature for 15 minutes, followed by the addition of a 15 μL aliquot of 2 μM iFL-cAMP (Caliper Life Sciences, Catalog No. 760444) in Buffer A. Following a 40 minute incubation at room temperature, the reaction was quenched by the addition of a 45 μL aliquot of 100 mM HEPES buffer at pH 7.5, containing 30 mM EDTA, 0.015% Brij-35, and 0.1% CR-3 (Caliper Life Sciences). […] Percent conversion was determined using HTS Well Analyzer software (Caliper Life Sciences, v5, SP2). IC50 values were determined using non-linear regression with Prism (v5.0a, GraphPad Software, Inc., La Jolla, Calif.).

[2] = molecular target: c-Met (Homo sapiens, UniProt P08581); assay: c-Met kinase inhibition assay (radiometric, 33P-ATP, polyE4Y substrate); assay type: biochemical; conditions: 0.5 nM c-Met, 35 μM ATP, competitive tight-binding fit
Method: The compounds of the invention were screened for their ability to inhibit c-Met kinase using a standard radiometric assay. Briefly, in this kinase assay the transfer of the terminal ^33P-phosphate in ^33P-ATP to substrate polyE4Y is interrogated. The assay was carried out in 96-well plates to a final volume of 100 μL per well containing 0.5 nM c-Met, 100 mM HEPES (pH 7.5), 10 mM MgCl2, 25 mM NaCl, 0.01% BSA, 1 mM DTT, 0.5 mg/mL polyE4Y, and 35 μM ATP. Accordingly, compounds of the invention were dissolved in DMSO to make 10 mM initial stock solutions. Serial dilutions in DMSO were then made to obtain the final solutions for the assay. A 1.5 μL aliquot of DMSO or inhibitor in DMSO was added to each well, followed by the addition of ^33P-ATP, and finally the addition of c-Met and polyE4Y (obtained from Sigma). After 20 min, the reaction was quenched with 50 μL of 30% trichloroacetic acid (TCA) containing 4 mM ATP. The reaction mixture was transferred to the 0.66 mm GF filter plates (Corning) and washed three times with 5% TCA. Following the addition of 50 μL of Ultimate Gold™ high efficiency scintillant (Packard Bioscience), the samples were counted in a Packard TopCount NXT Microplate Scintillation and Luminescence Counter (Packard BioScience). The Ki values, shown in Table 2, were calculated using Microsoft Excel Solver macros to fit the data to the kinetic model for competitive tight-binding inhibition.

[3] = system: Snu5-AP1-Luc-Pest cells (c-Met); assay: Inhibition of c-Met activity in Snu5 gastric carcinoma cells (Snu5-AP1-Luc-Pest luciferase reporter); assay type: cell-based; conditions: Homo sapiens, SNU-5, 6 hours incubation, luciferase signal
From the text: Compounds of formula I were also screened for their ability to inhibit the Luciferase-induced signal in an engineered Snu5 cell line. Snu5 [obtained from American Type Culture Collection (Catalog number CRL-5973)] is a human gastric carcinoma known to overexpress c-Met, which is constitutively active. The cell line was transduced with the retrovirus, pCLPCX, which contains a genetic construct consisting of 6×AP 1 promoter response elements and a luciferase gene having a C-terminal PEST sequence (proteolytic signal from mouse ornithine decarboxylase, which reduces the half-life of the luciferase). The constitutively active c-Met activates cellular pathways (principally MAP kinase), resulting in AP-1-induced transcription of luciferase-PEST and translation into the final product, the activity of which is quantifiable as a chemiluminescent readout upon the addition of luciferin (Steady-Glo from Promega). Residual luminescence is strongly correlated to the inhibition of c-Met. A stable cell line was obtained by selecting the new cell line (Snu5-AP1-Luc-Pest) with puromycin. The cells were grown in complete media [Iscove's media (Invitrogen) containing 10% fetal bovine serum (FBS, Hyclone) and penicillin/gentamycin (Invitrogen)]. Compounds of the invention were dissolved in DMSO to make 10 mM initial stock solutions. Serial dilutions in DMSO were then made and transferred to complete medium to make a 10× solution. The Snu5-AP1-Luc-Pest cells were counted and diluted to 200,000-cells/mL solution. The cells (90 μL) were added to each well in a 96-well black with clear bottom plate (Costar). Then 10 μL of the 10× compound solution was added to the cells in triplicate. The plates were incubated in a 37° C./5% CO2 incubator. After 6 hours, 50 μL of the Steady-Glo reagent (Promega) was added to each well and placed on a plate shaker for 5 minutes to ensure that the cells were completely lysed. The plate was read on a 1450 Microbeta Liquid Scintillation and Luminescence Counter (Perkin-Elmer). The IC50 values, shown in Table 2, were calculated using a 4-parameter fit using the graphing software Prism (GraphPad).

c-Met, sequence (P08581 25-1390): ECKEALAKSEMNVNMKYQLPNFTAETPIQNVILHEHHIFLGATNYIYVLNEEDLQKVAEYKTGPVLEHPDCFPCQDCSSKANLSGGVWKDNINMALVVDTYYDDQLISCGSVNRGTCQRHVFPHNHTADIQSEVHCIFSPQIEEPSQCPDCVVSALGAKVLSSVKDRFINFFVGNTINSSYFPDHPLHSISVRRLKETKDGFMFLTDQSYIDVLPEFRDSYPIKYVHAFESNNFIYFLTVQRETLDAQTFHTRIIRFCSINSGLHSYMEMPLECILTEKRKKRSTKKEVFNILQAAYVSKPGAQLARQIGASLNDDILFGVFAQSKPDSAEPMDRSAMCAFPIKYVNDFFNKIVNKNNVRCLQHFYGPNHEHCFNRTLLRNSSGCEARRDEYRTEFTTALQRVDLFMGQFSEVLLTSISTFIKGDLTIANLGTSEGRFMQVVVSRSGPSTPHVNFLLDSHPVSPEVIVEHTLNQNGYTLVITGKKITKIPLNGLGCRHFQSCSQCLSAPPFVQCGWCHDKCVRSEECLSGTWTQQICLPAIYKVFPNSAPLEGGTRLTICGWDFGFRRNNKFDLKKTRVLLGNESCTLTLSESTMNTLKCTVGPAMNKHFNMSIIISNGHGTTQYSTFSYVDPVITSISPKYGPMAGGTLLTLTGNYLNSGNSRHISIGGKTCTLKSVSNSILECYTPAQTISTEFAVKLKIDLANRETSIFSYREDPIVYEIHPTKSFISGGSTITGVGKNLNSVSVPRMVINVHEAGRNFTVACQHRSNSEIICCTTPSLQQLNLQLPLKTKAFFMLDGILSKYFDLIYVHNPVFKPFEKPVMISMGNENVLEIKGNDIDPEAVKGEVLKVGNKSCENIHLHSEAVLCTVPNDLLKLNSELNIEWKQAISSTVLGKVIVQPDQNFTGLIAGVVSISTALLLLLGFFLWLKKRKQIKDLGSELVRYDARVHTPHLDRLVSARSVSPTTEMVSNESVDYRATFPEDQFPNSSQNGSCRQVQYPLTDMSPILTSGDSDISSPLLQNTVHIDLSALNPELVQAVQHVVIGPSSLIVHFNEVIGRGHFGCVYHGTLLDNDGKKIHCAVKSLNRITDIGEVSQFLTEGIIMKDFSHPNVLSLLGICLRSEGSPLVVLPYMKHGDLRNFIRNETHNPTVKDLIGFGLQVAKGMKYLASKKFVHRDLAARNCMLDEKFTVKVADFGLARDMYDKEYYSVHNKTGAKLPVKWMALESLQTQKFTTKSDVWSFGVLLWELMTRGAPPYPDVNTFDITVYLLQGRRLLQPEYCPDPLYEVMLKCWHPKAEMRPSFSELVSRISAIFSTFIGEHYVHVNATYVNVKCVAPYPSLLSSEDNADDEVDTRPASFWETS
T1 sequence (Q14432 669-1141 limits assumed): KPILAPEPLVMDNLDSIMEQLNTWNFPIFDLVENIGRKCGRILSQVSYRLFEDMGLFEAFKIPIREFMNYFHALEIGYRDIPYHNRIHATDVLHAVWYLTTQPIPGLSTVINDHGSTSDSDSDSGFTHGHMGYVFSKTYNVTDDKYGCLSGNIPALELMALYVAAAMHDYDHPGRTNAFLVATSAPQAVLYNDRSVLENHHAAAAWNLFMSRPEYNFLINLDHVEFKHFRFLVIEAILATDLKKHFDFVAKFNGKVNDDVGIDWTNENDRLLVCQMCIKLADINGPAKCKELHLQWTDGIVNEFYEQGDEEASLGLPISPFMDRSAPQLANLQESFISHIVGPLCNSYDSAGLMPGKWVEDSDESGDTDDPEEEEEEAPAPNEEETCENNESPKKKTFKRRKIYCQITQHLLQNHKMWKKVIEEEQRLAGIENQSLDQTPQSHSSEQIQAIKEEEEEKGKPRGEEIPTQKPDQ

| IC50 [1] [µM] | Ki [2] [µM] | IC50 [3] [µM] | SMILES | activity against PDE3 compared with the respective enantiomer [1] |
| --- | --- | --- | --- | --- |
| 6.6 | < 0.3 | < 0.1 | C[C@H](c1ccc2ncccc2c1)c1nnc2sc(-c3cnn(C)c3)nn12 [Compound 1, 6-((R)-1-(6-(1-methyl-1H-pyrazol-4-yl)-[1,2,4]triazolo[3,4-b][1,3,4]thiadiazol-3-yl)ethyl)quinoline] | surprisingly less active against PDE3 than their respective enantiomers |
| 0.76 | < 0.3 | < 0.1 | C[C@@H](c1ccc2ncccc2c1)c1nnc2sc(-c3cnn(C)c3)nn12 [Compound 1a] |  |
| 6.15 | < 0.3 | < 0.1 | C[C@H](c1c(F)cc2ncccc2c1F)c1nnc2sc(-c3cnn(C)c3)nn12 [Compound 2, 5,7-difluoro-6-((R)-1-(6-(1-methyl-1H-pyrazol-4-yl)-[1,2,4]triazolo[3,4-b][1,3,4]thiadiazol-3-yl)ethyl)quinoline] | surprisingly less active against PDE3 than their respective enantiomers |
| 0.15 | < 0.3 | < 0.1 | C[C@@H](c1c(F)cc2ncccc2c1F)c1nnc2sc(-c3cnn(C)c3)nn12 [Compound 2a] |  |
